The assay relates to KK-Ay/Ta Jc1 mice. The experiment in a line: Body weight increase per ingested feed amount in obesity type 2 diabetic model mice. Format: in vivo. As to conditions: KK-Ay/Ta Jc1 male mice, 1% by weight in CE-2 feed; for Body Weight Increase/ Ingested Feed Amount (%): free intake, initial day to 17th day, mean value ± standard error (n=5); for body weight increase per ingested feed amount as compared with group 1 (CE-2 feed only): 17 days, t-test. The text has this: KK-Ay/Ta Jc1 mice (Clea Japan, Inc.; male; six weeks age)(15 mice) of an obesity type 2 diabetic model were divided into three groups each comprising five and named group 1 to group 3.
The mice of the groups 1 to 3 were made free to take feed and water. A commercially available feed CE-2 (manufactured by Clea Japan, Inc.) was ingested to the mice of group 1. CE-2 to which 1% by weight of trans-4-hydroxy-L-proline (manufactured by Kyowa Hakko Kogyo; hereinafter, abbreviated as the hydroxyproline) was added was ingested to the mice of group 2. CE-2 to which 1% by weight of trans-N-acetyl-4-hydroxy-L-proline (manufactured by Kyowa Hakko Kogyo; hereinafter, abbreviated as the N-acetylhydroxyproline) was added was ingested to the mice of group 3.
Body weight on the initial day of the test and on the 17th day and amount of the ingested feed from the initial day of the test to the 17th day were measured. As an index for the progress of obesity, a body weight increase during the test period for the total ingested feed amount during the test period was calculated for each mouse. The value was shown in terms of mean value±standard error (n=5) and statistic ratio of risk (p value) was determined by a t-test.

Regarding `CC(=O)N1C[C@H](O)C[C@H]1C(=O)O` [N-acetylhydroxyproline, trans-N-acetyl-4-hydroxy-L-proline], the “Body Weight Increase/ Ingested Feed Amount (%)” value turned out to be 4.2 ± 0.6 % and the “body weight increase per ingested feed amount as compared with group 1 (CE-2 feed only)” value is given as “significantly low”.

For `O=C(O)[C@@H]1C[C@@H](O)CN1` [hydroxyproline, trans-4-hydroxy-L-proline], the “Body Weight Increase/ Ingested Feed Amount (%)” value came to 5.8 ± 0.4% and the “body weight increase per ingested feed amount as compared with group 1 (CE-2 feed only)” value is reported as “tended to show low value”.

These data come from patent publication US20060264498A1, “Anti-obesity agent” (Kyowa Hakko Kogyo Co., Ltd., priority 2003, published 2006).
